The values that follow are results of earlier work, collected in US20050143441A1, “Novel medical combination treatment of obesity involving 4,5-dihydro-1H-pyrazole derivatives having CB1-antagonistic activity” (priority 2003, published 2005).

The conditions of data set [1]: in vivo.
Data set [2] concerns excretion of fat from the diet. Conditions: healthy male volunteers, 5 days.
The conditions of data set [3]: clinically obese patients.
Data set [4] deals with carragheenin induced swelling. To be noted: mice.
Data set [5] has as its target T1, porcine pancreatic lipase (Sus scrofa, UniProt P00591).
T1 sequence (P00591 1-450): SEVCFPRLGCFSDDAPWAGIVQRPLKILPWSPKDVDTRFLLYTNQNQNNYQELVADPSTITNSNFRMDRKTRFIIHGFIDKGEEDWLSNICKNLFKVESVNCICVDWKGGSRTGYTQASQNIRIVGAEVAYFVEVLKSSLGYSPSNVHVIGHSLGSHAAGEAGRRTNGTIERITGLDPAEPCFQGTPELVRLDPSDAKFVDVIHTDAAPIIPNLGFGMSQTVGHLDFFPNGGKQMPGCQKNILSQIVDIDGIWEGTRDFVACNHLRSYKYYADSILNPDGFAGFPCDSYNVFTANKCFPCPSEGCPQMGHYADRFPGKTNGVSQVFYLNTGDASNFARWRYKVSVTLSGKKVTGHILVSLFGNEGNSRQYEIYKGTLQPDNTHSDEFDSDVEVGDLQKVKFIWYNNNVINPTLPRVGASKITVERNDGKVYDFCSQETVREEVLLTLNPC

Another data set deals with plasma lipases. To be noted: relative to THL.

As to `CCCCCCCCCCCCCCCCOc1nc2ccc(C)cc2c(=O)o1` [ATL-962, 2-hexadecyloxy-6-methyl-4H-3,1-benzoxazin-4-one], the “toxicity in preclinical studies” value in data set [1] is recorded as “no toxicity was observed”. Moreover, the “safety and tolerability, phase Ib” value in data set [2] was “safe and well tolerated”. The “safety and tolerability, phase IIb” value in data set [3] was “safe and generally well tolerated”. Regarding `CC[C@@H](C)[C@@H](O)[C@H](C)C(=O)[C@H](C)/C=C(\C)C[C@H](C)[C@@H]1OC(=O)[C@H]1CC` [Ebelactone B], the carragheenin induced swelling entry in data set [4] is recorded as “reduces carragheenin induced swelling”.

For `CCCCCCC[C@@H](C[C@@H]1OC(=O)[C@H]1CCCCCCCC(C)C)OC(=O)[C@H](C)NC=O` [Panclicin A], in data set [5], the “mode of inhibition of pancreatic lipase (irreversibility)” value (“mode of inhibition of pancreatic lipase” for short) is given as “irreversibly inhibit pancreatic lipase”. Moreover, in the data set with plasma lipases, the “potency against plasma lipases compared with THL” value was “same potency as THL”.

As to `CCCCCCC[C@@H](C[C@@H]1OC(=O)[C@H]1CCCCCCCC(C)C)OC(=O)CNC=O` [Panclicin C], the “mode of inhibition of pancreatic lipase” value in data set [5] is recorded as “irreversibly inhibit pancreatic lipase”. `CCCCCCCCCC[C@@H]1C(=O)O[C@H]1C[C@H](CCCCCCC)OC(=O)CNC=O` [Panclicin D]: in data set [5], the “mode of inhibition of pancreatic lipase” value was “irreversibly inhibit pancreatic lipase”. As to `CCCCCCCCCCCC[C@@H]1C(=O)O[C@H]1C[C@H](CCCCCCC)OC(=O)CNC=O` [Panclicin E], in data set [5], the “mode of inhibition of pancreatic lipase” value is “irreversibly inhibit pancreatic lipase”. Turning to `CCCCCCCCCCC[C@@H](C[C@@H]1OC(=O)[C@H]1CCCCCC)OC(=O)[C@H](CC(C)C)NC=O` [tetrahydrolipstatin, (2S,3S,5S)-5-((S)-2-4-methylvaleryloxy)-2-heyl-3-hydroxy-hexadecanoic acid lactone], in data set [2] (orlistat 120 mg tid), the “fat excreted, average” value is 5.6 (+/−3.8) g/day.
